In patent US8138205B2, “Heteroarylalkoxy-substituted quinolone inhibitors of PDE4” (Kalypsys, Inc., priority 2006, dated 2012) one finds IC50 and solubility data, which are given here for 26 molecules.

The target of series [1] is T1, PDE4B (Homo sapiens, UniProt Q07343).
T1 construct: hex-histidine (His6) (N); made in house
Briefly: PDE/AK Biological Activity Assay (coupled PDE/adenylate kinase bioluminescent assay). The format is biochemical. The settings on record: catalytic domain of PDE4B, read-out: PDE4 Enzyme IC50. An excerpt:
Phosphodiesterases regulate the activity of the second messenger cyclic adenosine monophosphate (cAMP) by hydrolyzing cAMP to adenosine monophosphate (AMP). We developed a coupled PDE/AK bioluminescent high-throughput assay to measure the activity of phosphodiesterases. In the PDE/AK assay, the AMP produced from the hydrolysis of cAMP by phosphodiesterase is converted to adenosine diphosphate (ADP) by the phosphotransferase activity of adenylate kinase (also known as ADK or myokinase). Adenylate kinase will catalyze the conversion of 1 mole of AMP and 1 mole of ATP into 2 moles of ADP. Thus the conversion of AMP to ADP will result in the subsequent loss of ATP. The decrease in ATP concentration can be monitored as light output using luciferase in a reaction that requires ATP to produce light. The PDE/AK assay uses luciferase, which catalyzes the production of light from ATP present in the reaction mix. The amount of emitted light is inversely proportional to the level of AMP present in the reaction. Test compounds are incubated with the phosphodiesterases and phosphodiesterase inhibitors will decrease the rate of cAMP hydrolysis and decrease the subsequent production of AMP. Thus phosphodiesterase inhibitors will decrease the conversion of ATP to ADP and result in the greatest emission of light.
Compounds may be screened for functional potency in in vitro biochemical assays for their ability to inhibit the activity of phosphodiesterase (PDE) enzymes. A coupled PDE/AK assay was utilized to measure the inhibitory activity of compounds on PDE isoforms. The catalytic domain of PDE4B was fused to an amino-terminus hex-histidine affinity tag and purified. PDE4B enzyme was incubated with compounds for 10 minutes. Cyclic AMP substrate, ATP and adenylate kinase were then added to the PDE enzyme mix and incubated for 45 minutes at room temperature. A commercial ATP detection assay, Perkin Elmer's easyLite ATP detection reagent, was then added to measure the relative amount of ATP present in the reaction. After 10 minute incubation, the luminescent signal was quantitated with either the Perkin Elmer Viewlux or Molecular Devices Acquest or Analyst. Roflumilast and Rolipram are the positive controls used in the assay.

A short description of series [2]: Solubility Protocol. The format is physicochemical. The settings on record: aqueous buffer, thermodynamic from solid; pH 7.4, 0.1 M sodium phosphate buffer. On the procedure:
About 5 mg of a compound was mixed with 500 μL of pH 7.4, 0.1 M sodium phosphate buffer. The mixture was adjusted to the original pH of 7.4 and then mixed overnight or longer via rotary mixing. The sample was checked for pH and then filtered through a 0.45 μm filter. If the pH drifted away, the sample was adjusted to its original pH and mixed for at least 15 minutes before filtration. The filtrate was analyzed using HPLC.

T1 sequence (Q07343 330-659 limits assumed, species assumed): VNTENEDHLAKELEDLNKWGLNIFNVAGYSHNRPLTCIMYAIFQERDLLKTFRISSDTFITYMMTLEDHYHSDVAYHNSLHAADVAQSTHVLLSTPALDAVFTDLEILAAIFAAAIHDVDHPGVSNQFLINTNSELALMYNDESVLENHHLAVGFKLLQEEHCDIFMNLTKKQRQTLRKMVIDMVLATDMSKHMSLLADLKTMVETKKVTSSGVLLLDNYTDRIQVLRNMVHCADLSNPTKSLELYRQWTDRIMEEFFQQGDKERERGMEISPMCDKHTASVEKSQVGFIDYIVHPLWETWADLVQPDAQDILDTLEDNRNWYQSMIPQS

One may read the IC50 as the midpoint of a concentration-inhibition curve. The solubility is the concentration that dissolves in the medium under given conditions. A high value points to much dissolved substance. Turning to `COc1ccc2c(Nc3c(Cl)cncc3Cl)cc(=O)[nH]c2c1OCCCCCCN(C)CCO` [Example 30, 4-(3,5-Dichloropyridin-4-ylamino)-8-(6-((2-hydroxyethyl)(methyl)amino)hexyloxy)-7-methoxyquinolin-2(1H)-one], the IC50 in series [1] was under 1000 nM. This molecule also returned a solubility in series [2] of at least 1000 µg/mL.

As to `COc1ccc2c(Nc3c(Cl)cncc3Cl)cc(=O)[nH]c2c1OCCCCCCNCCCO` [Example 32, 4-(3,5-Dichloropyridin-4-ylamino)-8-(6-(3-hydroxypropylamino)hexyloxy)-7-methoxyquinolin-2(1H)-one], the IC50 in series [1] is under 1000 nM. Also, in series [2], the solubility was at least 1000 µg/mL.

On to `COc1ccc2c(Nc3c(Cl)cncc3Cl)cc(=O)[nH]c2c1OCCCCCCN(C)CCCO` [Example 33, 4-(3,5-Dichloropyridin-4-ylamino)-8-(6-((3-hydroxypropyl)(methyl)amino)hexyloxy)-7-methoxyquinolin-2(1H)-one], for which, in series [1], the IC50 was under 1000 nM. In series [2], this molecule returned a solubility of at least 1000 µg/mL.

Consider `COc1ccc2c(Nc3c(C)cncc3C)cc(=O)[nH]c2c1OCCCCCCN1CCCCC1` [Example 36, 4-(3,5-Dimethylpyridin-4-ylamino)-7-methoxy-8-(6-(piperidin-1-yl)hexyloxy)quinolin-2(1H)-one], for which the IC50 in series [1] is under 1000 nM. The molecule also showed a solubility in series [2] of at least 1000 µg/mL.

Turning to `COc1ccc2c(Nc3c(C)cncc3C)cc(=O)[nH]c2c1OCCCCCCN1CCCC1` [Example 37, 4-(3,5-Dimethylpyridin-4-ylamino)-7-methoxy-8-(6-(pyrrolidin-1-yl)hexyloxy)quinolin-2(1H)-one], the IC50 in series [1] is under 1000 nM. In series [2], this molecule yielded a solubility of at least 1000 µg/mL.

Consider `COc1ccc2c(Nc3c(Cl)cncc3Cl)cc(=O)[nH]c2c1OCCCCO` [Example 41, 4-(3,5-dichloropyridin-4-ylamino)-8-(4-hydroxybutoxy)-7-methoxyquinolin-2(1H)-one], for which the IC50 in series [1] is under 1000 nM. In series [2], this molecule returned a solubility of at least 1000 µg/mL.

For `COc1ccc2c(Nc3c(Cl)cncc3Cl)cc(=O)[nH]c2c1OCCCCCO` [Example 42, 4-(3,5-dichloropyridin-4-ylamino)-8-(5-hydroxypentyloxy)-7-methoxyquinolin-2(1H)-one], the IC50 in series [1] is under 1000 nM. In series [2], this molecule showed a solubility of at least 1000 µg/mL.

`COc1ccc2c(Nc3c(C)cncc3C)cc(=O)[nH]c2c1OCCCCCN(C)C` [Example 45, 8-(5-(dimethylamino)pentyloxy)-4-(3,5-dimethylpyridin-4-ylamino)-7-methoxyquinolin-2(1H)-one]: the half-inhibitory concentration (IC50) in series [1] is under 1000 nM. The same molecule registered a solubility in series [2] of at least 1000 µg/mL.

As for `COc1ccc2c(Nc3c(Cl)cncc3Cl)cc(=O)[nH]c2c1OCCCCCN1CCN(C)CC1` [Example 47, 4-(3,5-dichloropyridin-4-ylamino)-7-methoxy-8-(5-(4-methylpiperazin-1-yl)pentyloxy)quinolin-2(1H)-one], the IC50 in series [1] is under 1000 nM. The solubility in series [2] is at least 1000 µg/mL.

For the molecule `COc1ccc2c(Nc3c(Cl)cncc3Cl)cc(=O)[nH]c2c1OCCCCCN1CCOCC1` [Example 49, 4-(3,5-dichloropyridin-4-ylamino)-7-methoxy-8-(5-morpholinopentyloxy)quinolin-2(1H)-one], the IC50 in series [1] is under 1000 nM. Moreover, the solubility in series [2] is at least 1000 µg/mL.

Consider `COc1ccc2c(Nc3c(Cl)cncc3Cl)cc(=O)[nH]c2c1OCC(N)=O` [Example 50, 2-(4-(3,5-dichloropyridin-4-ylamino)-7-methoxy-2-oxo-1,2-dihydroquinolin-8-yloxy)acetamide], for which the IC50 in series [1] was under 1000 nM. In addition, in series [2], the solubility is at least 1000 µg/mL.

As for `COc1ccc2c(Nc3c(Cl)cncc3Cl)cc(=O)[nH]c2c1OCCCC(=O)O` [Example 51, 4-(4-(3,5-dichloropyridin-4-ylamino)-7-methoxy-2-oxo-1,2-dihydroquinolin-8-yloxy)butanoic acid], the IC50 in series [1] was under 1000 nM. In series [2], this molecule had a solubility of at least 1000 µg/mL.

Turning to `COc1ccc2c(Nc3c(Cl)cncc3Cl)cc(=O)[nH]c2c1OCCCCCCCCC(=O)O` [Example 55, 9-(4-(3,5-dichloropyridin-4-ylamino)-7-methoxy-2-oxo-1,2-dihydroquinolin-8-yloxy)nonanoic acid], the 50% inhibitory concentration (IC50) in series [1] was under 1000 nM. The solubility in series [2] is at least 1000 µg/mL.

As for `COc1ccc2c(Nc3c(Cl)cncc3Cl)cc(=O)[nH]c2c1OCCCn1ccnc1` [Example 62, 8-(3-(1H-imidazol-1-yl)propoxy)-4-(3,5-dichloropyridin-4-ylamino)-7-methoxyquinolin-2(1H)-one], the IC50 in series [1] was under 1000 nM. The solubility in series [2] was at least 1000 µg/mL.

Turning to `COc1ccc2c(Nc3c(Cl)cncc3Cl)cc(=O)[nH]c2c1OCCCCC(=O)N[C@@H](CO)C(=O)O` [Example 64, (S)-2-(5-(4-(3,5-dichloropyridin-4-ylamino)-7-methoxy-2-oxo-1,2-dihydroquinolin-8-yloxy)pentanamido)-3-hydroxypropanoic acid], the IC50 in series [1] was under 1000 nM. For the same molecule, the solubility in series [2] is at least 1000 µg/mL.

For `COc1ccc2c(Nc3c(Cl)cncc3Cl)cc(=O)[nH]c2c1OCCCCC(=O)N[C@@H](CC(=O)O)C(=O)O` [Example 66, (S)-2-(5-(4-(3,5-dichloropyridin-4-ylamino)-7-methoxy-2-oxo-1,2-dihydroquinolin-8-yloxy)pentanamido)succinic acid], in series [1], the IC50 was under 1000 nM. For the same molecule, the solubility in series [2] is at least 1000 µg/mL.

On to `COc1ccc2c(Nc3c(Cl)cncc3Cl)cc(=O)[nH]c2c1OCCCc1nn[nH]n1` [Example 67, 8-(3-(2H-tetrazol-5-yl)propoxy)-4-(3,5-dichloropyridin-4-ylamino)-7-methoxyquinolin-2(1H)-one], for which, in series [1], the IC50 was under 1000 nM. The solubility in series [2] was at least 1000 µg/mL.

Turning to `COc1ccc2c(Nc3c(Cl)cncc3Cl)cc(=O)[nH]c2c1OCCCCc1nn[nH]n1` [Example 68, 8-(4-(2H-tetrazol-5-yl)butoxy)-4-(3,5-dichloropyridin-4-ylamino)-7-methoxyquinolin-2(1H)-one], the IC50 in series [1] is under 1000 nM. Also, in series [2], the solubility is at least 1000 µg/mL.

As to `COCCOCCOCCCOc1c(OC)ccc2c(Nc3c(Cl)cncc3Cl)cc(=O)[nH]c12` [Example 70, 4-(3,5-dichloropyridin-4-ylamino)-7-methoxy-8-(3-(2-(2-methoxyethoxy)ethoxy)propoxy)quinolin-2(1H)-one], the IC50 in series [1] was under 1000 nM. The solubility in series [2] is at least 1000 µg/mL.

On to `COc1ccc2c(Nc3c(Cl)cncc3Cl)cc(=O)[nH]c2c1OCCCCCCc1nn[nH]n1` [Example 71, 8-(6-(2H-tetrazol-5-yl)hexyloxy)-4-(3,5-dichloropyridin-4-ylamino)-7-methoxyquinolin-2(1H)-one], for which the IC50 in series [1] was under 1000 nM. In series [2], the solubility is at least 1000 µg/mL.

As for `COc1ccc2c(Nc3c(C)cncc3C)cc(=O)[nH]c2c1OCCCCC(=O)O` [Example 72, 5-(4-(3,5-dimethylpyridin-4-ylamino)-7-methoxy-2-oxo-1,2-dihydroquinolin-8-yloxy)pentanoic acid], the IC50 in series [1] is under 1000 nM. The molecule further came in with a solubility in series [2] of at least 1000 µg/mL.

As for `COc1ccc2c(Nc3c(C)cncc3C)cc(=O)[nH]c2c1OCCCCCC(=O)O` [Example 73, 6-(4-(3,5-dimethylpyridin-4-ylamino)-7-methoxy-2-oxo-1,2-dihydroquinolin-8-yloxy)hexanoic acid], in series [1], the IC50 was under 1000 nM. This molecule also returned a solubility in series [2] of at least 1000 µg/mL.

On to `COc1ccc2c(Nc3c(C)cncc3C)cc(=O)[nH]c2c1OCCCCCCC(=O)O` [Example 74, 7-(4-(3,5-dimethylpyridin-4-ylamino)-7-methoxy-2-oxo-1,2-dihydroquinolin-8-yloxy)heptanoic acid], for which the IC50 in series [1] is under 1000 nM. The molecule also displayed a solubility in series [2] of at least 1000 µg/mL.

`COc1ccc2c(Nc3c(C)cncc3C)cc(=O)[nH]c2c1OCCCCCCCC(=O)O` [Example 75, 8-(4-(3,5-dimethylpyridin-4-ylamino)-7-methoxy-2-oxo-1,2-dihydroquinolin-8-yloxy)octanoic acid]: the IC50 in series [1] is under 1000 nM. Besides, in series [2], the solubility is at least 1000 µg/mL.

Turning to `COc1ccc2c(Nc3c(C)cncc3C)cc(=O)[nH]c2c1OCCCCCCCCC(=O)O` [Example 76, 9-(4-(3,5-dimethylpyridin-4-ylamino)-7-methoxy-2-oxo-1,2-dihydroquinolin-8-yloxy)nonanoic acid], the IC50 in series [1] was under 1000 nM. For the same molecule, in series [2], the solubility is under 1000 µg/mL.

On to `COc1ccc2c(Nc3c(C)cncc3C)cc(=O)[nH]c2c1OCCCn1ccnc1` [Example 77, 8-(3-(1H-imidazol-1-yl)propoxy)-4-(3,5-dimethylpyridin-4-ylamino)-7-methoxyquinolin-2(1H)-one], for which, in series [1], the IC50 was under 1000 nM. Moreover, in series [2], the solubility is under 1000 µg/mL.
